From patent US12606561B2, “Substituted pyrazolo[1,5-a][1,3,5]triazines as CDK inhibitors” (QURIENT CO., LTD., priority 2018, dated 2026)

Experiments:
[1] = test system: A2780; test: A2780 viability assay (CellTiter-Glo, 72 hours); assay type: cell-based; conditions: Homo sapiens; A2780 cells
Description: Human […] cell line, MV4-11_(ATCC, Cat #CRL-9591), NSCLC (Non-small cell lung cancer) cell line H460 (ATCC, Cat #HTB-177), A2780 (ECACC, Cat #93112519) and OVCAR-3(ATCC, Cat #HTB-161) were obtained from ATCC. Cells were grown in RPMI-1640 media (Invitrogen, Cat #22400-089) supplemented with 10% FBS (Invitrogen, Cat #10099141) and 1% penicillin/streptomycin (Invitrogen, Cat #15070063) and cultured at 37° C., 5% CO2 in a humidified chamber. All cell lines were routinely tested for mycoplasma.
To effect of the CDK7 inhibitor to inhibit the growth of target cancer cells, viability assay were conducted a 72 hour time period. Briefly, the candidate cell line was plated in 96 well plate at the following density of cells respectively. 1×10^4 cells/well for MV4-11, 5×10^3 for H460 and OVCAR-3, and 1×10^3 for A2780. After 24 hours, the cells were treated with various concentrations of the compound (ranging from 0.0015 uM to 10 uM). DMSO solvent without compound served as a control and final DMSO concentration lest than 0.1%. After 72 hours of incubation at 37° C., 5% CO2 incubator, cells were analyzed for the viability using the CellTiter-Glo Luminescent Cell Viability Assay (Promega, Cat #G7570). All viability assays were performed in duplicate and Luminescence was read using an Envision (Perkin Elmer, USA). Data was analyzed using XLfit software.

[2] = biological target: T1, CDK5/p25 (Homo sapiens, UniProt Q00535); test: Enzymatic assay for CDK5 (LANCE Ultra kinase assay, FRET based); assay type: biochemical; conditions: ATP at Km
T1 construct: purchased Invitrogen PR8543B
Description: (§1) Enzymatic Binding Assay Protocol for CDK1, CDK2, CDK5 and CDK7
(§2) Inhibition activity of the respective compound on CDK kinase under Km value of ATP was tested in FRET based The LANCE® Ultra kinase assay (Perkin Elmer), which uses a ULight™-labeled peptide substrate and an appropriate Europium-labeled anti-phospho-antibody. Test compounds were made with DMSO solutions, and then 4-fold serial dilutions for 8 doses were prepared using automated liquid handler (POD™ 810, Labcyte) and 80 nL/well of diluted compound solutions were added into the 384-well plates (Greiner, Cat #784075). And then 68 nM of ULight-MBP peptide (Perkin Elmer, Cat #TRF0109-M) and 5 ul/well of ATP (Sigma, Cat #A7699) were added to the plate. After 1 min centrifugation at 1000 rpm, purified CDKs/Cyclin complex were added with the following concentrations respectively. 24 uM for CDK1/Cyclin B (Invitrogen, Cat #PR4768C), 22 uM for CDK2/Cyclin A (Invitrogen, Cat #PV6290), 10 uM for CDK5/p25 (Invitrogen, Cat #PR8543B) and […] for CDK7/Cyclin H/MNAT1 (Invitrogen, Cat #PR6749B) were added to each corresponding plate for CDK1, CDK2, CDK5 and CDK7. Incubate at 23° C. for 60 min and then Eu-labeled anti-phospho-Myelin Basic Protein (PE, Cat #TRF0201-M) and EDTA (Invitrogen, Cat #15575038) mixture in Lance Detection Buffer (Perkin Elmer, Cat #CR97100) was added in each well. After additional incubation at 23° C. for 60 min, test articles were measured the fluorescence using Envision leader (Perkin Elmer, USA) [Laser as excitation light; […] as the first and the second emission filter]. Data were analyzed using XL Fit software.

[3] = biological target: T2, CDK7/Cyclin H/MNAT1 (Homo sapiens, UniProt P50613); test: Enzymatic assay for CDK7 (LANCE Ultra kinase assay, FRET based); assay type: biochemical; conditions: for IC50: ATP at Km
T2 construct: purchased Invitrogen PR6749B
Description: as §1
(§3) Inhibition activity of the respective compound on CDK kinase under Km value of ATP was tested in FRET based The LANCE® Ultra kinase assay (Perkin Elmer), which uses a ULight™-labeled peptide substrate and an appropriate Europium-labeled anti-phospho-antibody. […] After 1 min centrifugation at 1000 rpm, purified CDKs/Cyclin complex were added with the following concentrations respectively. […] Data were analyzed using XL Fit software.

[4] = biological target: T3, CDK1/Cyclin B (Homo sapiens, UniProt P06493); test: Enzymatic assay for CDK1 (LANCE Ultra kinase assay, FRET based); assay type: biochemical; conditions: ATP at Km; read-out: CDK1 enzymatic activity IC50
T3 construct: purchased Invitrogen PR4768C
Description: as §1, §3

[5] = biological target: T4, CDK2/Cyclin A (Homo sapiens, UniProt P24941); test: Enzymatic assay for CDK2 (LANCE Ultra kinase assay, FRET based); assay type: biochemical; conditions: ATP at Km
T4 construct: purchased Invitrogen PV6290
Description: as §1, §2

T1 sequence (Q00535 whole entry): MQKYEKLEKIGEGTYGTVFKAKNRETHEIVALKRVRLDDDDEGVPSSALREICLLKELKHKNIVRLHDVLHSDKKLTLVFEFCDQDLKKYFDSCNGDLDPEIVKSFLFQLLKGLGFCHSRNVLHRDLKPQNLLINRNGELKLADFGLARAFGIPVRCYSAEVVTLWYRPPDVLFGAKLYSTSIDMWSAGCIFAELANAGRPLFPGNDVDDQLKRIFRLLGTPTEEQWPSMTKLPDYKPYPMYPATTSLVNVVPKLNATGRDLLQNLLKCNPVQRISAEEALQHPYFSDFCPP
T1 sequence (Q15078 99-307 partner limits assumed): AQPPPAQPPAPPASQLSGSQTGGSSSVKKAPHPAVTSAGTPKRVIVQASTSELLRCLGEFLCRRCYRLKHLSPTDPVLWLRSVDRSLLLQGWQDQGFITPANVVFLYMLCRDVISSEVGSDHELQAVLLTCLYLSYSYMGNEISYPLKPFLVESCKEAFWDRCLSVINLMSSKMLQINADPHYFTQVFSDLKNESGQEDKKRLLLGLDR
T2 sequence (P50613 whole entry): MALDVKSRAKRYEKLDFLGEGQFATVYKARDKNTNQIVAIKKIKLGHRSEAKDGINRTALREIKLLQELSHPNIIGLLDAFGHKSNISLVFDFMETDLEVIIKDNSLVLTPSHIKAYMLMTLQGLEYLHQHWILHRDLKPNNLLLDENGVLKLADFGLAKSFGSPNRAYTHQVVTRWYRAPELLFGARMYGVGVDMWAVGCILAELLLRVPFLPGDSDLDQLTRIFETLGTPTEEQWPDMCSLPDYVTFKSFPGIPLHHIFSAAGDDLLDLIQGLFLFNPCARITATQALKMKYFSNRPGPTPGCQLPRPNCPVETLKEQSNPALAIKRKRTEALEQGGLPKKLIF
T2 sequence (P51946 whole entry partner): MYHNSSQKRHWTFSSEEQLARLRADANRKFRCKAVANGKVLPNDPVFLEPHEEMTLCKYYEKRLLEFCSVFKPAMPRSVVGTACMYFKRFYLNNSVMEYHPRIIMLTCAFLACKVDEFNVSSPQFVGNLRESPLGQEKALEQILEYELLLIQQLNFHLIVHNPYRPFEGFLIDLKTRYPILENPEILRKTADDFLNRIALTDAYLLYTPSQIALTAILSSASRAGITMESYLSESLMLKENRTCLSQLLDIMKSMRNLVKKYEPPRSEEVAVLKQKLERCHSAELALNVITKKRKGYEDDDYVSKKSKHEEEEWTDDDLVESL
T2 sequence (P51948 whole entry partner): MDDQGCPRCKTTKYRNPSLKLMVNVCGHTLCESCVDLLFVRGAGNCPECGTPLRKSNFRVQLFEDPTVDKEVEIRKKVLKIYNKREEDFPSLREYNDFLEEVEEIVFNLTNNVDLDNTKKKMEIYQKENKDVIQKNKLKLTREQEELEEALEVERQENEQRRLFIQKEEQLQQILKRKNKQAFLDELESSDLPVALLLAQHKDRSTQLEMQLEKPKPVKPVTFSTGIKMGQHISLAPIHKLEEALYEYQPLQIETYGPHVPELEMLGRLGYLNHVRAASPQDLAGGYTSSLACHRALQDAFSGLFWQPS
T3 sequence (P06493 whole entry): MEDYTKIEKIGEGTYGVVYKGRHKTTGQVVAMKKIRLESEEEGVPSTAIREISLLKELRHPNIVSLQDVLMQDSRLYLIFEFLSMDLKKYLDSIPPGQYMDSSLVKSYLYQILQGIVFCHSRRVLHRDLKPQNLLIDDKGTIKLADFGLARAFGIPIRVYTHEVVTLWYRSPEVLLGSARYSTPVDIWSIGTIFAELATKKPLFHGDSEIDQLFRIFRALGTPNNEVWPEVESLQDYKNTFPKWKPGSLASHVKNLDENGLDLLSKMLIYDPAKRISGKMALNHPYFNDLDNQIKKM
T3 sequence (P14635 whole entry partner): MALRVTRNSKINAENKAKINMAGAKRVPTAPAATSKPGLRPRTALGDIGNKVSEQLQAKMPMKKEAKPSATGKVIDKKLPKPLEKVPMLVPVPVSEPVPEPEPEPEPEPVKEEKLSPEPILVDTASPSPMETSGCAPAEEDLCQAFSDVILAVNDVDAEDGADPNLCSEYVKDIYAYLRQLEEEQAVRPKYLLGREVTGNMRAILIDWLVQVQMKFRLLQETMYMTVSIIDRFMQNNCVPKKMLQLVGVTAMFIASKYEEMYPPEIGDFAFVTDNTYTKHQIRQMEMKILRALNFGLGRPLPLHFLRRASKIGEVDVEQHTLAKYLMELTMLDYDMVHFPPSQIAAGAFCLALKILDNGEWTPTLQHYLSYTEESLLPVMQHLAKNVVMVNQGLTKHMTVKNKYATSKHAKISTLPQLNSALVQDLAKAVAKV

Compound	IC50 [1] [nM]	IC50 [2] [nM]	IC50 [3] [nM]	CDK1/CDK7: Selectivity of CDK7 inhibition over CDK1 inhibition [3]	CDK2/CDK7: Selectivity of CDK7 inhibition over CDK2 inhibition [3]	CDK5/CDK7: Selectivity of CDK7 inhibition over CDK5 inhibition [3]	IC50 [4] [nM]	IC50 [5] [nM]
C=CC(=O)Nc1ccc2c(-c3ccccc3CNc3nc(NCc4cnc(C)s4)nc4c(C(C)C)cnn34)nccc2c1 [Compound 196]	1000 to 10000	> 1000	> 1000	C (C indicates [fold] ≤ 50)	C (C indicates [fold] ≤ 50)	C (C indicates [fold] ≤ 50)	> 1000	> 1000
C=CC(=O)Nc1ccc2c(-c3ccccc3CNc3cc(C)nc4c(C(C)C)cnn34)nccc2c1 [Compound 195]	< 1000	> 1000	< 100	A (A indicates [fold] > 500)	A (A indicates [fold] > 500)	A (A indicates [fold] > 500)	> 1000	> 1000
C=C(C)C(=O)Nc1ccc2c(-c3ccccc3CNc3nc(Nc4cccnc4)nc4c(C(C)C)cnn34)nccc2c1 [Compound 207]	< 1000	> 1000	100 to 1000	B (B indicates 50 < [fold] ≤ 500)	B (B indicates 50 < [fold] ≤ 500)	B (B indicates 50 < [fold] ≤ 500)	> 1000	> 1000
C=C(Br)C(=O)Nc1ccc2c(-c3ccccc3CNc3nc(NC[C@H]4CCNC[C@@H]4O)nc4c(C(C)C)cnn34)nccc2c1 [Compound 205]	< 1000	> 1000	< 100	B (B indicates 50 < [fold] ≤ 500)	B (B indicates 50 < [fold] ≤ 500)	B (B indicates 50 < [fold] ≤ 500)	> 1000	> 1000
C=CC(=O)Nc1ccc2c(-c3ccccc3CNc3nc(N4CCc5ncccc5C4)nc4c(C(C)C)cnn34)nccc2c1 [Compound 212]	< 1000	> 1000	< 100	A (A indicates [fold] > 500)	A (A indicates [fold] > 500)	A (A indicates [fold] > 500)	> 1000	> 1000
C=CC(=O)Nc1ccc2c(-c3ccccc3CNc3cc(Cl)nc4c(C(C)C)cnn34)nccc2c1 [Compound 193]	< 1000	> 1000	< 100	A (A indicates [fold] > 500)	A (A indicates [fold] > 500)	A (A indicates [fold] > 500)	> 1000	> 1000
C=CC(=O)Nc1ccc2c(-c3ccccc3CNc3cc(C4CC4)nc4c(C(C)C)cnn34)nccc2c1 [Compound 197]	< 1000	> 1000	< 100	A (A indicates [fold] > 500)	A (A indicates [fold] > 500)	A (A indicates [fold] > 500)	> 1000	> 1000
C=CC(=O)Nc1ccc2c(-c3ccccc3CNc3nc(Nc4ccncc4)nc4c(C(C)C)cnn34)nccc2c1 [Compound 189]	1000 to 10000	> 1000	100 to 1000	B (B indicates 50 < [fold] ≤ 500)	B (B indicates 50 < [fold] ≤ 500)	B (B indicates 50 < [fold] ≤ 500)	> 1000	> 1000
C=C(F)C(=O)N1CCc2c(cccc2-c2ccccc2CNc2nc(OC3CCC(C)(C)NC3)nc3c(C(C)C)cnn23)C1 (stereo not drawn) [Compound 191]	< 1000	> 1000	< 100	A (A indicates [fold] > 500)	A (A indicates [fold] > 500)	A (A indicates [fold] > 500)	> 1000	> 1000
C=CC(=O)Nc1ccc2c(-c3ccccc3CNc3cc(Nc4cccc(OC5CCC(C)(C)NC5)c4)nc4c(C(C)C)cnn34)nccc2c1 (stereo not drawn) [Compound 187]	< 1000	> 1000	< 100	A (A indicates [fold] > 500)	A (A indicates [fold] > 500)	A (A indicates [fold] > 500)	> 1000	> 1000
C=C(F)C(=O)N1CCc2c(cccc2-c2ccccc2CNc2nc(N[C@@H]3CCCNC3)nc3c(C(C)C)cnn23)C1 [Compound 192]	< 1000	> 1000	< 100	A (A indicates [fold] > 500)	A (A indicates [fold] > 500)	A (A indicates [fold] > 500)	> 1000	> 1000
C=C(F)C(=O)N1CCc2c(ccnc2-c2ccccc2CNc2nc(OC3CCC(C)(C)NC3)nc3c(C(C)C)cnn23)C1 (stereo not drawn) [Compound 199]	< 1000	> 1000	< 100	A (A indicates [fold] > 500)	A (A indicates [fold] > 500)	A (A indicates [fold] > 500)	> 1000	> 1000
C=CC(=O)Nc1ccc2c(-c3ccccc3CNc3cc(NC4CCC(C)(C)NC4)nc4c(C(C)C)cnn34)nccc2c1 (stereo not drawn) [Compound 184]	< 1000	> 1000	< 100	A (A indicates [fold] > 500)	A (A indicates [fold] > 500)	A (A indicates [fold] > 500)	> 1000	> 1000
C=CC(=O)Nc1ccc2c(-c3ccccc3CNc3cc(NC4CCC(F)(F)CC4)nc4c(C(C)C)cnn34)nccc2c1 [Compound 186]	< 1000	> 1000	< 100	A (A indicates [fold] > 500)	A (A indicates [fold] > 500)	A (A indicates [fold] > 500)	> 1000	> 1000
C=CC(=O)Nc1ccc2c(-c3ccccc3CNc3nc(N4CCNC(C(F)(F)F)C4)nc4c(C(C)C)cnn34)nccc2c1 (stereo not drawn) [Compound 211]	< 1000	> 1000	< 100	A (A indicates [fold] > 500)	A (A indicates [fold] > 500)	A (A indicates [fold] > 500)	> 1000	> 1000
